Source: US20250326785A1, “SODIUM SALT AND ETHANOLAMINE SALT OF 23-HYDROXYTORMENTIC ACID” (HUYABIO International, LLC, priority 2024, published 2025)
Entries after “also recorded” stand apart in the source; their conditions may differ.

Tests used:
[1] = Solubility in water (temperature dependence); assay type: physicochemical
Description: Sodium salt of Pattern 5 was prepared using inverse solubility, with dissolution of HBI-3808 free acid in water at low temperature, and heating to reach super saturation, followed by anti-solvent addition. The solids isolated from this process were consistent with sodium salt of pattern 15, which can be converted to sodium salt of pattern 5 via drying under vacuum with exposure to elevated humidity (and the conversion proceeds via sodium salt of pattern 2 as an intermediate).

[2] = Single-dose IV and oral pharmacokinetic study in rabbits; assay type: in vivo, New Zealand White Rabbits; details: rabbit
Text: Eight groups (n=3) of rabbits received single doses of HBI-3802 or the sodium salt (form 5) HBI-3808 either by intravenous dosing or by oral dosing. HBI-3802 was formulated in 20% PG +80% (20% Captisol in pH 7.4 PBS buffer), and HBI-3808 was formulated in 5% NMP+15% EtOH+10% Tween 80+70% (20% Captisol in pH 7.4 PBS buffer). In addition, normal or enteric coated capsules were used to orally deliver the sodium salt (form 5) of HBI-3808. To allow determination of oral absolute bioavailability, both HBI-3802 and HBI-3808 were delivered IV at a dose of 0.3 mg/kg and blood samples obtained at 0, 0.25, 0.5, 0.75, 1,2,4,8,12,24,48, and 72 hours after dosing for derivation of plasma used to determine plasma concentrations by LC-MS. The HBI-3802 0.3 mg/kg plasma concentrations were compared to plasma concentrations obtained at the same time points from rabbits receiving single oral doses of […] at 1 or 5 mg/kg. The HBI-3808 0.3 mg/kg plasma concentrations were compared to plasma concentrations from groups of rabbits receiving oral gavage of 1 mg/kg HBI-3808 solution or 5 mg/kg HBI-3808 solution and from rabbits receiving 5 mg/kg of the sodium salt (form 5) of HBI-3808 in normal capsules or in enteric coated capsules.

[3] = Varying temperature (VT)-XRPD; assay type: physicochemical; details: heating 25 to 250° C. (ethanolamine salt to 300° C.)
Description: Varying temperature (VT)-XRPD was carried out between 25-250° C.
VT-XRPD of HBI-3808 sodium salt of Pattern 5 was carried out between 25-250° C. (FIG. 5M). […] At 150° C., the diffractogram changed and was labelled as Pattern 7, indicating formation of HBI-3808 sodium salt of Pattern 7 (see Example 7). Diffractogram of Pattern 7, was observed between 150-250° C. Upon cooling to 25° C., Diffractogram of Pattern 5 was observed again, indicating reformation of HBI-3808 sodium salt of Pattern 5. Pattern 7 has some similarities with Pattern 6 (See Example 6). Both Patterns 6 and 7 may represent anhydrous forms of the HBI-3808 sodium salt. Starting concentration of the of HBI-3808 sodium salt of Pattern 5.
VT-XRPD was carried out according to the temperature program of Table 17B. […] At 210° C., the XRPD diffractogram was consistent with poorly crystalline BBI-3808 free acid of Pattern 1. Free acid (HBI-3808) of Pattern 1 was observed between 210-240° C.

[4] = test system: Adult rats (Sprague Dawley) with MI by LAD ligation; assay: Rat myocardial infarction model: pressure-volume catheter measurement; assay type: in vivo
Text: Animal Model and Myocardial Infarction: Adult rats (Sprague Dawley (SD), body weight, -250 g) were used to generate a model with MI by LAD ligation of the heart as described in the previous study (Chongyu Zhang, Meng-Hsuan Hsieh, Song-Yi Wu, Shu-Hong Li, Jun Wu, Shi-Ming Liu, Hao-Ji Wei, Richard D. Weisel, Hsing-Wen Sung, Ren-Ke Li, “A self-doping conductive polymer hydrogel that can restore electrical impulse propagation at myocardial infarct to prevent cardiac arrhythmia and preserve ventricular function,” Biomaterials, Volume 231, 2020, 119672, ISSN 0142-9612). In brief, each rat was pre-medicated with 5% isoflurane in a chamber.
The selected rats having similar FS were randomly divided into 6 groups: (1) Negative control group (treated with 40% SBCD); (2) Positive control group (with HBI-3802, 2 mg/kg /day); (3) Dose 1 (HBI-3808 2 mg/kg/day); (4) Dose 2 (HBI-3808 0.64 mg/kg day); (5) Dose 3 (HBI-3808 0.2 mg/kg/day); and (6) Sham control (No myocardial infarction and treated with 40% SBCD).
Oral Treatment: Six days after permanent LAD ligation, the selected rats received the first daily treatment. HBI-3808 (at 1 of the 3 doses) or 3802 at 2 mg/kg/day (1 ml/rat/day) delivered by gastric gavage daily for 14 days (2). 40% SB-CD alone (1 ml/rat/day) was similarly administered to rats in the control and sham groups.
Pressure-Volume Measurement: End-point functional and morphological assessments were performed at 21 days after first treatment (27 days post myocardial infarction). Each rat was anesthetized as described above (Myocardial Infarction), and ventilated. The sternotomy was performed, and a calibrated Millar conductance pressure-volume catheter (Millar Instruments, USA) was inserted into the LV cavity through the apex. Pressure and volume data were collected with the Millar software. Parallel conductance was evaluated after the injection of hypertonic saline solution into the right jugular vein, with the volume measurements corrected for the parallel conductance. To analyze the LV pressure and volume relationship, pressure and volume data were acquired, and real-time pressure-volume loops were constructed. Stroke work (SW) and dP/dt max (indices of systolic function) and dP/dt min and Tau_w (index of diastolic function) as well as LV volumes were compared between the groups.

[5] = test system: human embryonic stem cells (hESCs); assay: Induction of differentiation of hESCs to cardiomyocytes; assay type: cell-based
Description: In order to test the effect of HBI-3808 on human embryonic stem cells (hESCs) on stimulating differentiation to cardiomyocytes (CMs), hESCs were incubated in the presence of media (see legend, FIG. 31) or 100 ng/ml HBI-3808.

VEGF = VEGF enrichment and angiogenesis induction by HBI-3808 conditioned media/supernatant; assay type: cell-based
[6] = PO 5 mg/kg in enteric coated capsules
[7] = 2 mg/kg/day, vs 2 mg/kg HBI-3802, 0.64 and 0.2 mg/kg HBI-3808 and control, p<0.05 and 0.01

Which “solubility in water versus temperature” value [1] does the source give for CC1CCC2(C(=O)[O-])CCC3(C)C(=CCC4C5(C)CC(O)C(O)C(C)(CO)C5CCC43C)C2C1(C)O.[Na+] (stereo not drawn) [HBI-3808 sodium salt of Pattern 5, sodium salt of 23-hydroxytormentic acid] here?
The value was “inverse solubility in water”.

And the bioavailability ([2]; PO 1 mg/kg in 5% NMP+15% EtOH+10% tween 80+70% (20% Captisol in pH 7.4 PBS buffer))?
The bioavailability was 17.9%.

And the bioavailability ([2]; PO 5 mg/kg in 5% NMP+15% EtOH+10% tween 80+70% (20% Captisol in pH 7.4 PBS buffer))?
The bioavailability was 27.7%.

What about the “absorption onset delayed until” value [2, 6] of the same molecule?
The value was 8 h.

And the bioavailability [2, 6]?
The bioavailability was 10.9%.

What about the bioavailability ([2]; PO 5 mg/kg in normal capsules) of the same molecule?
The bioavailability was 10.7%.

And the “dose dependence of Cmax and AUC” value ([2]; PO 1 and 5 mg/kg solution)?
The value was “dose proportional increases with low variability”.

What about the “temperature range in which diffractograms consistent with the input salt were observed” value [3] of the same molecule?
The value was 25-115 °C.

With C[C@@H]1CC[C@]2(C(=O)O)CC[C@]3(C)C(=CCC4[C@@]5(C)C[C@@H](O)[C@H](O)[C@@](C)(CO)C5CC[C@]43C)C2[C@]1(C)O (stereo partly drawn) [HBI-3808, 23-hydroxytormentic acid] as the molecule, how does the cardiac diastolic function ([4]; 0.2 mg/kg/day, vs control at 21 days after treatment, p<0.01) read?
Its cardiac diastolic function is “better cardiac diastolic function compared with control group”.

And the cardiac systolic function ([4]; 0.2 mg/kg/day, vs control at 21 days after treatment, p<0.05)?
The cardiac systolic function was “better cardiac systolic function compared with control group”.

And the “left ventricular end systolic volumes (ESV)” value ([4]; 0.2 mg/kg/day, vs control, p<0.02)?
The value was “significantly smaller”.

What about the “Left ventricular end diastolic volumes (EDV)” value ([4]; 0.64 mg/kg/day, vs 0.2 mg/kg group, p<0.01) of the same molecule?
Its value is “significantly smaller”.

What about the “stroke work (SW) and dP/dt max (indices of systolic function)” value ([4]; 2 mg/kg/day, 21 days after treatment, vs 2 mg/kg HBI-3802, 0.64 and 0.2 mg/kg HBI-3808 and control, p<0.01) of the same molecule?
Its value is “significantly greater”.

And the “end diastolic volumes compared with non-infarcted sham animals” value ([4]; 2 mg/kg/day, Day 21)?
The value was “the same; also recorded: equivalent to non-infarcted sham animals”.

What about the “dP/dt min and Tau_w (index of diastolic function)” value [4, 7] of the same molecule?
The value was “also improved”.

What about the “left ventricular end systolic volumes (ESV)” value [4, 7] of the same molecule?
The value was “smaller”.

And the “Left ventricular end diastolic volumes (EDV)” value ([4]; 2 mg/kg/day, vs 0.64 and 0.2 mg/kg HBI-3808 and control, p<0.01)?
Its value is “smaller”.

What about the “differentiation of hESCs to cardiomyocytes (CMs)” value ([5]; 100 ng/ml HBI-3808, day 13) of the same molecule?
Its value is “successfully stimulated hESCs to differentiate into viable, beating CMs by day 13”.

And the “modulation of cardiac-associated genes” value ([5]; 100 ng/ml, days 1, 3, 6, 9, 13)?
The value was “produced detectable modulation of cardiac-associated genes”.

And the “VEGF in media harvested from treated CMs” value (VEGF)?
Its value is “enriched in VEGF”.

And the “angiogenesis in supernatant of CM cell suspensions” value (VEGF)?
Its value is “induces angiogenesis”.
